Data as given in ChEMBL document CHEMBL1137026, “Design and synthesis of novel Cdc25A-inhibitors having phosphate group as a hydrophilic residue” (Bioorg Med Chem Lett, 2004).

Columns and labels:
[1] = target: T1, M-phase inducer phosphatase 2 (Homo sapiens, UniProt P30305); experiment: Inhibitory concentration against dual-specificity phosphatase Cell division cycle (Cdc) 25B
T1 sequence (P30305 whole entry): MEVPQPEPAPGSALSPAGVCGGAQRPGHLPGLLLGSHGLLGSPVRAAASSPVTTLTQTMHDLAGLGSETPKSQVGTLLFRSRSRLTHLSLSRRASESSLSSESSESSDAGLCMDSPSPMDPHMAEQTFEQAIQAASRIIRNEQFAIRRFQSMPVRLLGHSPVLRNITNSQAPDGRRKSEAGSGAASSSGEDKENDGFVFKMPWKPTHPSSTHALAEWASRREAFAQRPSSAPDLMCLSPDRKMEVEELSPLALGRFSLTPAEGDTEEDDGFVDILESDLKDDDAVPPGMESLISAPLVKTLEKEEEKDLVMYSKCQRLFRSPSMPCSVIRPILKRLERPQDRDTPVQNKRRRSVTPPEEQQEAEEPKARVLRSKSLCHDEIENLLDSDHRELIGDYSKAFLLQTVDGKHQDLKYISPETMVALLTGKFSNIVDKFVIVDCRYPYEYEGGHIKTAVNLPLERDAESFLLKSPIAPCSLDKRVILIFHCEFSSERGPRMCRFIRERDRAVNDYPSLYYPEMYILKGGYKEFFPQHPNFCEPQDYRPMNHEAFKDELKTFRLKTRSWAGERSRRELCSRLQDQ

[2] = target: T2, M-phase inducer phosphatase 1 (Homo sapiens, UniProt P30304); experiment: Inhibitory concentration against dual-specificity phosphatase Cell division cycle (Cdc) 25A
T2 sequence (P30304 whole entry): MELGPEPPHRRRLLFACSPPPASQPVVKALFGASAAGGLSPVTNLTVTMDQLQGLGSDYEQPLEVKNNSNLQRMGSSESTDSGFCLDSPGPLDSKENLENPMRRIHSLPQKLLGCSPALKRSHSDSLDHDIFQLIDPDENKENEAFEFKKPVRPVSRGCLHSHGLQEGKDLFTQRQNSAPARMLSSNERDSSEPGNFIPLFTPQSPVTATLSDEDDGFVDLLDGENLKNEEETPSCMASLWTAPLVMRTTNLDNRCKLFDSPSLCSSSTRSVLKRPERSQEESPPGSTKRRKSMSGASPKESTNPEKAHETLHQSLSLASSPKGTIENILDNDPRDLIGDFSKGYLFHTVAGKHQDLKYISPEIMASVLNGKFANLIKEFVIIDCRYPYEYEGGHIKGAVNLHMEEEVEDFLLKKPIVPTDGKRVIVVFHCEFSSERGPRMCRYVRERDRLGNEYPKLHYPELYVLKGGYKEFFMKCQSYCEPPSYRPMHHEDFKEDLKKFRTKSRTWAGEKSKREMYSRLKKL

| IC50 [1] [µM] | IC50 [2] [µM] | Compound |
| --- | --- | --- |
| 4.5 | 22.7 | CC(C)CCC[C@@H](C)[C@H]1CCC2[C@@](C)(CO)CCC[C@@]21C (some centres not stated) |
| 6.8 | 24.5 | CC(C)CCC[C@@H](C)[C@H]1CCC2[C@@](C)(CCOP(=O)(O)O)CCC[C@@]21C (some centres not stated) |
| 1.3 | 6.9 | CC(C)CCC[C@@H](C)[C@H]1CCC2[C@@](C)(CCO)CCC[C@@]21C (some centres not stated) |
| 5.8 | 3.9 | CC(C)CCC[C@@H](C)[C@H]1CCC2[C@@H](O)CCC[C@@]21C (some centres not stated) |
| 1.7 | 5.5 | CC(C)CCC[C@@H](C)[C@H]1CCC2[C@](C)(CCO)CCC[C@@]21C (some centres not stated) |
| 1.2 | 5.5 | CC(C)CCC[C@@H](C)[C@H]1CCC2[C@](C)(CCOP(=O)(O)O)CCC[C@@]21C (some centres not stated) |
| 3.7 | 0.7 | CC(C)CCC[C@@H](C)[C@H]1CCC2[C@@](C)(COP(=O)(O)O)CCC[C@@]21C (some centres not stated) |
| 3.3 | 8.5 | CC(C)CCC[C@@H](C)[C@H]1CCC2[C@](C)(CO)CCC[C@@]21C (some centres not stated) |
| 5.9 | 17.2 | CC(C)CCC[C@@H](C)[C@H]1CCC2/C(=C/C(=O)O)CCC[C@@]21C (some centres not stated) |
| 5 | 8.2 | CC(C)CCC[C@@H](C)[C@H]1CCC2[C@@H](OP(=O)(O)O)CCC[C@@]21C (some centres not stated) |
| 3 | 0.9 | CC(C)CCC[C@@H](C)[C@H]1CCC2C(C)(COP(=O)(O)O)CCC[C@@]21C (single isomer, unassigned) |
